Experimental data published in PMC9574513 (The Journal of Biological Chemistry, 2022).
Substitutions are numbered along the chain they refer to.

Tests used:
[1] = molecular target: T1, PtKCS4 (Populus trichocarpa, UniProt U7E0F5); assay type: cell-based; conditions: inhibition; 30 °C, 4 days, yeast culture
T1 sequence (U7E0F5 1-524): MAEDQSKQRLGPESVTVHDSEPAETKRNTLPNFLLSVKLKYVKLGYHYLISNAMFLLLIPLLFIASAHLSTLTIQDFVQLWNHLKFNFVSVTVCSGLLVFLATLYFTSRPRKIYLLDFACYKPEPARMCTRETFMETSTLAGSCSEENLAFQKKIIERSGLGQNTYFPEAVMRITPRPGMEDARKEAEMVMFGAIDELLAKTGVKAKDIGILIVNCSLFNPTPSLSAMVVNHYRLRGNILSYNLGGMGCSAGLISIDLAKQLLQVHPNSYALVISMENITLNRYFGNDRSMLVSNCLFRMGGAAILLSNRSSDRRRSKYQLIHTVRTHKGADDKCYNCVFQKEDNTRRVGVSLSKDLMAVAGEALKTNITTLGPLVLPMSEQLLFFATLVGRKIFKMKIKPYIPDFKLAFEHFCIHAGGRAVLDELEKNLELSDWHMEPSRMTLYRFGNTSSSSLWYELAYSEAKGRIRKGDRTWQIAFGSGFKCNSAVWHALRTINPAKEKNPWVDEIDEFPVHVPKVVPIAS

[2] = molecular target: T2, PtKCS2 (Populus trichocarpa, UniProt A0A2K1YQQ5); assay type: cell-based; conditions: inhibition; 30 °C, 4 days, yeast culture
T2 sequence (A0A2K1YQQ5 1-524): T1 sequence (U7E0F5 1-524) with C94S, T137K, T139V, C144F, R283C

Structure (SMILES)	proportion of total VLC-FAMEs vs uninhibited control at 2 μM [1]	proportion of total VLC-FAMEs vs uninhibited control at 2 μM [2]
CCc1cccc(CC)c1N(COC)C(=O)CCl [alachlor]	whereas alachlor and anilofos slightly reduced activity	whereas alachlor and anilofos slightly reduced activity
CC(C)N(C(=O)COc1nnc(C(F)(F)F)s1)c1ccc(F)cc1 [flufenacet]	Flufenacet and fentrazamide had the greatest effect on reducing VLCFA elongation in all three KCSs	Flufenacet and fentrazamide had the greatest effect on reducing VLCFA elongation in all three KCSs
